In patent publication US7601746B2 (Shionogi & Co., Ltd., priority 2003, dated 2009) one finds EC50 data, which are given here for 21 molecules.

The target in the first assay is T1, human TPO receptor (hTPOR) (Homo sapiens, UniProt P40238).
T1 construct: expressed in transfected cells; host or cells: BaF-B03 (murine IL-3 dependent cell line)
T1 sequence (P40238 26-635): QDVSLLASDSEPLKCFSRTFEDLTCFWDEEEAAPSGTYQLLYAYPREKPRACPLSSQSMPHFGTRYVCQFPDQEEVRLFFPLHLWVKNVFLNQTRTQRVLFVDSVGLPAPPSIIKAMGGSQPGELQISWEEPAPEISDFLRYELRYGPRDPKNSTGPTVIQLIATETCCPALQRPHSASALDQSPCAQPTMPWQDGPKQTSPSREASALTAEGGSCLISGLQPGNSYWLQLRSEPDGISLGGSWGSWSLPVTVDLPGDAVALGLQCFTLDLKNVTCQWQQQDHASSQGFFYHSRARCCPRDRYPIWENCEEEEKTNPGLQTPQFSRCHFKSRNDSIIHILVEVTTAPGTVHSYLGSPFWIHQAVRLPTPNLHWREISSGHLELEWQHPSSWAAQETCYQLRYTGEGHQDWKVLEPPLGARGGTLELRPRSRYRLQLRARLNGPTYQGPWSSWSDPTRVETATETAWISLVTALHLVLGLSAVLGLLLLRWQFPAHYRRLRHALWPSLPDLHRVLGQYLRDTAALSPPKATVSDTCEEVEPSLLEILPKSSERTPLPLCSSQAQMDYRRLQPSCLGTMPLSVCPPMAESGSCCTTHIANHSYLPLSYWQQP
The assay is described as follows: Thrombopoietic activity: proliferation of TPO dependent BaF/hTPOR cells (WST-1, absorbance at 450 nm). It is filed as cell-based. The note with it: 20 h + 4 h WST-1, ED50 = half concentration of the concentration showing the maximum thrombopoietic activity, Table 1. Put shortly:
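Proliferation read-out: WST-1 absorbance at 450 nm after 20 h compound exposure plus 4 h reagent, using IL-3-deprived BaF/hTPOR cells (5×10^4 per well) dependent on human TPO receptor signalling. ED50 defined as half the concentration producing maximal activity.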
As usually defined, the EC50 is the concentration that produces a half-maximal response. For the molecule `COc1c(CCCOCCC(C)(C)C)cccc1-c1csc(NC(=O)c2cc(F)c(/C=C(\C)C(=O)O)c(F)c2)n1` [Compound B521, (E)-3-[4-(4-{3-[3-(3,3-dimethylbutyloxy)propyl]-2-methyloxyphenyl}thiazol-2-ylcarbamoyl}-2,6-difluorophenyl)-2-methylacrylic acid], the EC50 stood at 16.9 nM.

In the case of `COc1c(-c2csc(NC(=O)c3cc(Cl)c(/C=C(\C)C(=O)O)c(Cl)c3)n2)cccc1C(CC(C)(C)C)OC` (stereo not drawn) [Compound B1054, (E)-3-(2,6-dichloro-4-{4-[2-methyloxy-3-(1-methyloxy-3,3-dimethylbutyl)phenyl]thiazol-2-ylcarbamoyl}phenyl)-2-methylacrylic acid], the EC50 was determined as 19.9 nM.

Turning to `CCCCCCCCCC(OC)c1cccc(-c2csc(NC(=O)c3cc(Cl)c(/C=C(\C)C(=O)O)c(Cl)c3)n2)c1OC` (stereo not drawn) [Compound B1059, (E)-3-(2,6-dichloro-4-{4-[2-methyloxy-3-(1-methyloxydecyl)phenyl]thiazol-2-ylcarbamoyl}phenyl)-2-methylacrylic acid], the EC50 was determined as 3.2 nM.

Regarding `CCCCCCCCCCC(OC)c1cccc(-c2csc(NC(=O)c3cc(Cl)c(/C=C(\C)C(=O)O)c(Cl)c3)n2)c1OC` (stereo not drawn) [Compound B1060, (E)-3-(2,6-dichloro-4-{4-[2-methyloxy-3-(1-methyloxy-undecyl)phenyl]thiazol-2-ylcarbamoyl}phenyl)-2-methylacrylic acid], the EC50 was 3.9 nM.

As for `CCCOC(c1cccc(-c2csc(NC(=O)c3cc(Cl)c(/C=C(\C)C(=O)O)c(Cl)c3)n2)c1OC)C1CCCCC1` (stereo not drawn) [Compound B1102], the EC50 was 2.86 nM.

For the molecule `CCCCOC(C)c1cccc(-c2csc(NC(=O)c3cc(Cl)c(/C=C(\C)C(=O)O)c(Cl)c3)n2)c1OC` (stereo not drawn) [Compound B1122, (E)-3-(4-{4-[3-(1-butyloxyethyl)-2-methyloxyphenyl]thiazol-2-ylcarbamoyl}-2,6-dichlorophenyl)-2-methylacrylic acid], the EC50 worked out at 8.25 nM.

As for `CCCCOCCCc1cccc(-c2csc(NC(=O)c3cc(Cl)c(/C=C(\C)C(=O)O)c(Cl)c3)n2)c1OC` [Compound B1124, (E)-3-(4-{4-[3-(3-butyloxypropyl)-2-methyloxyphenyl]thiazol-2-ylcarbamoyl}-2,6-dichlorophenyl)-2-methylacrylic acid], the EC50 was 15.8 nM.

`CCCCCCCCCC(OC)c1cccc(-c2csc(NC(=O)c3cc(Cl)c(/C=C(\OC)C(=O)O)c(Cl)c3)n2)c1OC` (stereo not drawn) [Compound B1437, (Z)-3-(2,6-dichloro-4-{4-[2-methyloxy-3-(1-methyloxydecyl)phenyl]thiazol-2-ylcarbamoyl}phenyl)-2-methyloxyacrylic acid]: the EC50 turned out to be 6.5 nM.

In the case of `CCCCCCCCCCC(OC)c1cccc(-c2csc(NC(=O)c3cc(Cl)c(/C=C(\OC)C(=O)O)c(Cl)c3)n2)c1OC` (stereo not drawn) [Compound B1438, (Z)-3-(2,6-dichloro-4-{4-[2-methyloxy-3-(1-methyloxyundecyl)phenyl]thiazol-2-ylcarbamoyl}phenyl)-2-methyloxyacrylic acid], the EC50 amounted to 6.3 nM.

Take `CCCOCCCC(OC)c1cccc(-c2csc(NC(=O)c3cc(F)c(/C=C(\C)C(=O)O)c(F)c3)n2)c1OC` (stereo not drawn) [Compound B1799, (E)-3-(2,6-difluoro-4-{4-[2-methyloxy-3-(1-methyloxy-4-propyloxybutyl)phenyl]thiazol-2-ylcarbamoyl}phenyl)-2-methylacrylic acid]: the EC50 came to 17.3 nM.

Turning to `COc1c(CCCOCC(C)(C)C)cccc1-c1csc(NC(=O)c2cc(Cl)c(/C=C(\C)C(=O)O)c(Cl)c2)n1` [Compound B1833, (E)-3-[2,6-dichloro-4-(4-{3-[3-(2,2-dimethylpropyloxy)propyl)-2-methyloxyphenyl]thiazol-2-ylcarbamoyl}phenyl)-2-methylacrylic acid], the EC50 was found to be 19 nM.

Regarding `CCC(CC)COCCCc1cccc(-c2csc(NC(=O)c3cc(F)c(/C=C(\C)C(=O)O)c(F)c3)n2)c1OC` [Compound B1848, (E)-3-[4-(4-{3-[3-(2-ethylbutyloxy)propyl]-2-methyloxyphenyl}thiazol-2-ylcarbamoyl)-2,6-difluorophenyl]-2-methylacrylic acid], the half-maximal effective concentration (EC50) amounted to 15.9 nM.

Regarding `COc1c(CCCOCCC(C)C)cccc1-c1csc(NC(=O)c2cc(F)c(/C=C(\C)C(=O)O)c(F)c2)n1` [Compound B1851, (E)-3-[2,6-difluoro-4-(4-{2-methyloxy-3-[3-(3-methylbutyloxy)propyl]phenyl}thiazol-2-ylcarbamoyl)phenyl]-2-methylacrylic acid], the 50% effective concentration (EC50) was 16.8 nM.

As to `COc1c(CCCOCCC(C)C)cccc1-c1csc(NC(=O)c2cc(Cl)c(/C=C(\C)C(=O)O)c(Cl)c2)n1` [Compound B1852, (E)-3-[2,6-dichloro-4-(4-{2-methyloxy-3-[3-(3-methylbutyloxy)propyl]phenyl}thiazol-2-ylcarbamoyl)phenyl]-2-methylacrylic acid], the EC50 was 16.5 nM.

On to `COc1c(CCCOCC(C)C)cccc1-c1csc(NC(=O)c2cc(F)c(/C=C(\C)C(=O)O)c(F)c2)n1` [Compound B1877, (E)-3-(2,6-difluoro-4-{4-[3-(3-isobuyloxypropyl)-2-methyloxyphenyl]thiazol-2-ylcarbamoyl}phenyl)-2-methylacrylic acid], for which the EC50 stood at 13 nM.

Still in this assay, the particulars now being: 20 h + 4 h WST-1, ED50 = half concentration of the concentration showing the maximum thrombopoietic activity, Table 2.
With `CCCCOCCc1cccc(-c2csc(NC(=O)c3cc(Cl)c(/C=C(\C)C(=O)O)c(Cl)c3)n2)c1OC` [Compound B1836, (E)-3-(4-{4-[3-(2-butyloxyethyl)-2-methyloxyphenyl]thiazol-2-ylcarbamoyl}-2,6-dichlorophenyl)-2-methylacrylic acid], the EC50 came out at 21 nM.

Turning to `CCC(CC)COCCCc1cccc(-c2csc(NC(=O)c3cc(Cl)c(/C=C(\C)C(=O)O)c(Cl)c3)n2)c1OC` [Compound B1849, (E)-3-[2,6-dicholoro-4-(4-{3-[3-(2-ethylbutyloxy)propyl]-2-methyloxyphenyl}thiazol-2-ylcarbamoyl)phenyl]-2-methylacrylic acid], the EC50 came out at 22.5 nM.

Take `COc1c(CCCOCC2CCC2)cccc1-c1csc(NC(=O)c2cc(F)c(/C=C(\C)C(=O)O)c(F)c2)n1` [Compound B1854, (E)-3-(4-{4-[3-(3-cyclobutylmethyloxypropyl)-2-methyloxyphenyl]thiazol-2-ylcarbamoyl}-2,6-difluorophenyl)-2-methylacrylic acid]: the EC50 turned out to be 24.4 nM.

`COc1c(CCCOCC2CCC2)cccc1-c1csc(NC(=O)c2cc(Cl)c(/C=C(\C)C(=O)O)c(Cl)c2)n1` [Compound B1855, (E)-3-(2,6-dichloro-4-{4-[3-(3-cyclobutylmethyloxypropyl)-2-methyloxyphenyl]thiazol-2-ylcarbamoyl}phenyl)-2-methylacrylic acid]: the EC50 turned out to be 21.3 nM.

Turning to `CCCCCC(OC)c1cccc(-c2nc(NC(=O)c3cc(Cl)c(/C=C(\OC)C(=O)O)c(Cl)c3)sc2OC)c1F` (stereo not drawn) [Compound B1861, (Z)-3-(2,6-dichloro-4-{4-[2-fluoro-3-(1-methyloxyhexyl)phenyl]-5-methyoxythiazol-2-ylcarbamoyl}phenyl)-2-methyloxyacrylic acid], the EC50 was determined as 22.8 nM.

Turning to `CCCOCCCc1cccc(-c2nc(NC(=O)c3cc(Cl)c(/C=C(\C)C(=O)O)c(Cl)c3)sc2OC)c1` [Compound B1863, (E)-3-(2,6-dichloro-4-{5-methyloxy-4-[3-(3-propyloxypropyl)phenyl]thiazol-2-ylcarbamoyl}phenyl)-2-methylacrylic acid], the concentration giving a half-maximal response (EC50) came out at 22.8 nM.
